Measured values reported in patent US20240384350A1, “METHODS OF TREATING CANCER WITH KINASE INHIBITORS” (BOARD OF REGENTS, THE UNIVERSITY OF TEXAS SYSTEM, priority 2021, published 2024).

Experiments:
Assay in all cases: Ba/F3 drug screening, Cell Titer Glo, IC50 Mut/WT
Type in all cases: cell-based
EGFR Ex19del G724S = biological target: T1, EGFR Ex19del G724S (Homo sapiens, UniProt P00533, DEL746-750/G724S); conditions: Ba/F3 cells, EGFR Ex19del G724S (PACC), Mut/WT
T1 construct: expressed in transfected cells; host or cells: Ba/F3

EGFR L858R S784F = biological target: T2, EGFR L858R S784F (Homo sapiens, UniProt P00533, L858R/S784F); conditions: Classical-Like, 72 hours
T2 construct: expressed in transfected cells; host or cells: Ba/F3 cells, retroviral pBabe-Puro vector (vector made by GeneScript from EGFR L858R)
Experimental: (§1) Data represent the ratio of the IC50 value for a given TKI for cells with a classical-like EGFR mutation to the IC50 value for cells with wildtype EGFR.
(§2) Ba/F3 cell generation, drug screening, and IC50 approximations. Ba/F3 cells were obtained as a gift from Dr. Gordon Mills (MD Anderson Cancer Center), and maintained in RPMI (Sigma) containing 10% FBS, 1% penicillin/streptomycin, and 10 ng/ml recombinant mIL-3 (R&D Biosystems). To establish stable Ba/F3 cell lines, Ba/F3 cells were transduced with retroviruses containing mutant EGFR plasmids for 12-24 hours.
(§3) After 48-72 hours of transduction, 2 μg/ml puromycin (Invitrogen) was added to Ba/F3 cell lines in complete RPMI. To select for EGFR positive cell lines, cells were stained with PE-EGFR (Biolegend) and sorted by FACS. After sorting, EGFR positive cells were maintained in RPMI containing 10% FBS, 1% penicillin/streptomycin, and 1 ng/ml EGF to support cell viability. […] Shortly, cells were plated in 384-well plates (Greiner Bio-One) at 2000-3000 cells per well in technical triplicate. Seven different concentrations of TKIs or DMSO vehicle were added to reach a final volume of 40 μL per well. After 72 hours, 11 μL of Cell Titer Glo (Promega) was added to each well. Plates were incubated for a minimum of 10 minutes, and bioluminescence was determined using a FLUOstar OPTIMA plate reader (BMG LABTECH). Raw bioluminescence values were normalized to DMSO control treated cells, and values were plotted in GraphPad Prism. […] Drug screens were performed in technical triplicate on each plate and either duplicate or triplicate biological replicates.

EGFR H773insNPH = biological target: T3, EGFR H773insNPH (Homo sapiens, UniProt P00533, INS773NPH); conditions: Ex20, 72 hours
T3 construct: expressed in transfected cells; host or cells: Ba/F3 cells, retroviral pBabe-Puro vector

EGFR Ex19del T854I = biological target: T4, EGFR Ex19del T854I (Homo sapiens, UniProt P00533, DEL746-750/T854I); conditions: Ba/F3 cells, EGFR Ex19del T854I (PACC), Mut/WT
T4 construct: expressed in transfected cells; host or cells: Ba/F3 (retroviral transduction, pBabe-Puro based vectors)
Experimental: (§4) Data represent the ratio of the IC50 value for a given TKI for cells with a PACC EGFR mutation to the IC50 value for cells with wildtype EGFR.
as §2
(§5) After 48-72 hours of transduction, 2 μg/ml puromycin (Invitrogen) was added to Ba/F3 cell lines in complete RPMI. To select for EGFR positive cell lines, cells were stained with PE-EGFR (Biolegend) and sorted by FACS. After sorting, EGFR positive cells were maintained in RPMI containing 10% FBS, 1% penicillin/streptomycin, and 1 ng/ml EGF to support cell viability. Drug screening was performed as previously described^41,42. Shortly, cells were plated in 384-well plates (Greiner Bio-One) at 2000-3000 cells per well in technical triplicate. Seven different concentrations of TKIs or DMSO vehicle were added to reach a final volume of 40 μL per well. After 72 hours, 11 μL of Cell Titer Glo (Promega) was added to each well. Plates were incubated for a minimum of 10 minutes, and bioluminescence was determined using a FLUOstar OPTIMA plate reader (BMG LABTECH). Raw bioluminescence values were normalized to DMSO control treated cells, and values were plotted in GraphPad Prism. […] Drug screens were performed in technical triplicate on each plate and either duplicate or triplicate biological replicates.

EGFR E709A = biological target: T5, EGFR E709A (Homo sapiens, UniProt P00533, E709A); conditions: Ba/F3 cells, EGFR E709A (PACC), Mut/WT
T5 construct: expressed in transfected cells; host or cells: Ba/F3

EGFR L833F = biological target: T6, EGFR L833F (Homo sapiens, UniProt P00533, L833F); conditions: Classical-Like, 72 hours
T6 construct: expressed in transfected cells; host or cells: Ba/F3 cells, retroviral pBabe-Puro vector

[1] = biological target: T7, EGFR L747_K754del insATSPE (Homo sapiens, UniProt P00533, DEL747-749/K754E); conditions: T790M-like-3S, 72 hours
T7 construct: expressed in transfected cells; host or cells: Ba/F3 cells, retroviral pBabe-Puro vector
Experimental: (§6) Data represent the ratio of the IC50 value for a given TKI for cells with a T790M-like-3S EGFR mutation to the IC50 value for cells with wildtype EGFR.
as §2, §5

EGFR G719S T790M = biological target: T8, EGFR G719S T790M (Homo sapiens, UniProt P00533, G719S/T790M); conditions: T790M-like-3S, 72 hours
T8 construct: expressed in transfected cells; host or cells: Ba/F3
Experimental: as §6, §2, §5

EGFR S768I/T790M = biological target: T9, EGFR S768I/T790M (Homo sapiens, UniProt P00533, S768I/T790M); conditions: T790M-like-3S, 72 hours
T9 construct: expressed in transfected cells; host or cells: Ba/F3

EGFR G724S T790M = biological target: T10, EGFR G724S T790M (Homo sapiens, UniProt P00533, G724S/T790M); conditions: T790M-like-3R, 72 hours
T10 construct: expressed in transfected cells; host or cells: Ba/F3
Experimental: Data represent the ratio of the IC50 value for a given TKI for cells with a T790M-like-3R EGFR mutation to the IC50 value for cells with wildtype EGFR.
as §2
After 48-72 hours of transduction, 2 μg/ml puromycin (Invitrogen) was added to Ba/F3 cell lines in complete RPMI. To select for EGFR positive cell lines, cells were stained with PE-EGFR (Biolegend) and sorted by FACS. After sorting, EGFR positive cells were maintained in RPMI containing 10% FBS, 1% penicillin/streptomycin, and 1 ng/ml EGF to support cell viability. […] Shortly, cells were plated in 384-well plates (Greiner Bio-One) at 2000-3000 cells per well in technical triplicate. Seven different concentrations of TKIs or DMSO vehicle were added to reach a final volume of 40 μL per well. After 72 hours, 11 μL of Cell Titer Glo (Promega) was added to each well. Plates were incubated for a minimum of 10 minutes, and bioluminescence was determined using a FLUOstar OPTIMA plate reader (BMG LABTECH). Raw bioluminescence values were normalized to DMSO control treated cells, and values were plotted in GraphPad Prism. […] Drug screens were performed in technical triplicate on each plate and either duplicate or triplicate biological replicates. […] Statistical differences between groups were determined by ANOVA as described in the figure legends.

EGFR Ex19del = biological target: T11, EGFR Ex19del (Homo sapiens, UniProt P00533, DEL746-750); conditions: Classical-Like, 72 hours
T11 construct: expressed in transfected cells; host or cells: Ba/F3 cells, retroviral pBabe-Puro vector
Experimental: as §1, §2, §3

EGFR L858R/T790M = biological target: T12, EGFR L858R/T790M (Homo sapiens, UniProt P00533, L858R/T790M); conditions: T790M-like-3S, 72 hours
T12 construct: expressed in transfected cells; host or cells: Ba/F3

EGFR G719A T790M = biological target: T13, EGFR G719A T790M (Homo sapiens, UniProt P00533, G719A/T790M); conditions: T790M-like-3S, 72 hours
T13 construct: expressed in transfected cells; host or cells: Ba/F3

EGFR L718V = biological target: T14, EGFR L718V (Homo sapiens, UniProt P00533, L718V); conditions: Ba/F3 cells, EGFR L718V (PACC), Mut/WT
T14 construct: expressed in transfected cells; host or cells: Ba/F3
Experimental: as §4, §2, §5

EGFR V774M = biological target: T15, EGFR V774M (Homo sapiens, UniProt P00533, V774M); conditions: Ba/F3 cells, EGFR V774M (PACC), Mut/WT
T15 construct: host or cells: Ba/F3

EGFR E709_T710del insD = biological target: T16, EGFR E709_T710del insD (Homo sapiens, UniProt P00533, DEL709-709/T710D); conditions: Ba/F3 cells, EGFR E709_T710del insD (PACC), Mut/WT
T16 construct: expressed in transfected cells; host or cells: Ba/F3
Experimental: as §4, §2, §5

EGFR Ex19del/T790M/G724S = biological target: T17, EGFR Ex19del/T790M/G724S (Homo sapiens, UniProt P00533, DEL746-750/G724S/T790M); conditions: T790M-like-3S, 72 hours
T17 construct: expressed in transfected cells; host or cells: Ba/F3
Experimental: as §6, §2, §5

EGFR L858R/V834L = biological target: T18, EGFR L858R/V834L (Homo sapiens, UniProt P00533, L858R/V834L); conditions: Classical-Like, 72 hours
T18 construct: expressed in transfected cells; host or cells: Ba/F3 cells, retroviral pBabe-Puro vector

EGFR G724S = biological target: T19, EGFR G724S (Homo sapiens, UniProt P00533, G724S); conditions: Ba/F3 cells, EGFR G724S (PACC), Mut/WT
T19 construct: expressed in transfected cells; host or cells: Ba/F3

EGFR S768dupSVD V769M = biological target: T20, EGFR S768dupSVD V769M (Homo sapiens, UniProt P00533, INS768MDS/V769M); conditions: Ex20, 72 hours
T20 construct: expressed in transfected cells; host or cells: Ba/F3 cells, retroviral pBabe-Puro vector (vector made by GeneScript from EGFR S768dupSVD, c.2305G > A)

EGFR G719A/R776C = biological target: T21, EGFR G719A/R776C (Homo sapiens, UniProt P00533, G719A/R776C); conditions: Ba/F3 cells, EGFR G719A/R776C (PACC), Mut/WT
T21 construct: expressed in transfected cells; host or cells: Ba/F3

EGFR L858R L718Q = biological target: T22, EGFR L858R L718Q (Homo sapiens, UniProt P00533, L718Q/L858R); conditions: Ba/F3 cells, EGFR L858R L718Q (PACC), Mut/WT
T22 construct: host or cells: Ba/F3

EGFR E709A G719S = biological target: T23, EGFR E709A G719S (Homo sapiens, UniProt P00533, E709A/G719S); conditions: Ba/F3 cells, EGFR E709A G719S (PACC), Mut/WT
T23 construct: expressed in transfected cells; host or cells: Ba/F3

EGFR L858R = biological target: T24, EGFR L858R (Homo sapiens, UniProt P00533, L858R); conditions: Classical-Like, 72 hours
T24 construct: expressed in transfected cells; host or cells: Ba/F3 cells, retroviral pBabe-Puro vector
Experimental: as §1, §2, §3

EGFR A767insASV = biological target: T25, EGFR A767insASV (Homo sapiens, UniProt P00533, DUP767-769); conditions: Ex20, 72 hours
T25 construct: expressed in transfected cells; host or cells: Ba/F3 cells, retroviral pBabe-Puro vector
Experimental: Data represent the ratio of the IC50 value for a given TKI for cells with an ex20ins EGFR mutation to the IC50 value for cells with wildtype EGFR.
as §2
After 48-72 hours of transduction, 2 μg/ml puromycin (Invitrogen) was added to Ba/F3 cell lines in complete RPMI. To select for EGFR positive cell lines, cells were stained with PE-EGFR (Biolegend) and sorted by FACS. After sorting, EGFR positive cells were maintained in RPMI containing 10% FBS, 1% penicillin/streptomycin, and 1 ng/ml EGF to support cell viability. Drug screening was performed as previously described^41,42. Shortly, cells were plated in 384-well plates (Greiner Bio-One) at 2000-3000 cells per well in technical triplicate. Seven different concentrations of TKIs or DMSO vehicle were added to reach a final volume of 40 μL per well. After 72 hours, 11 μL of Cell Titer Glo (Promega) was added to each well. Plates were incubated for a minimum of 10 minutes, and bioluminescence was determined using a FLUOstar OPTIMA plate reader (BMG LABTECH). Raw bioluminescence values were normalized to DMSO control treated cells, and values were plotted in GraphPad Prism. […] Drug screens were performed in technical triplicate on each plate and either duplicate or triplicate biological replicates. […] Statistical differences between groups were determined by ANOVA as described in the figure legends.

EGFR L858R/C797S = biological target: T26, EGFR L858R/C797S (Homo sapiens, UniProt P00533, C797S/L858R); conditions: Ba/F3 cells, EGFR L858R/C797S (PACC), Mut/WT
T26 construct: expressed in transfected cells; host or cells: Ba/F3
Experimental: as §4, §2, §5

ratio of the IC50 value for cells with a PACC EGFR mutation to the IC50 value for cells with wildtype EGFR (EGFR Ex19del G724S)	ratio of IC50 for cells with mutant EGFR to IC50 for cells with wildtype EGFR (Mut/WT) (EGFR L858R S784F)	ratio of IC50 for cells with mutant EGFR to IC50 for cells with wildtype EGFR (Mut/WT) (EGFR H773insNPH)	ratio of the IC50 value for cells with a PACC EGFR mutation to the IC50 value for cells with wildtype EGFR (EGFR Ex19del T854I)	ratio of the IC50 value for cells with a PACC EGFR mutation to the IC50 value for cells with wildtype EGFR (EGFR E709A)	ratio of IC50 for cells with mutant EGFR to IC50 for cells with wildtype EGFR (Mut/WT) (EGFR L833F)	ratio of IC50 for cells with mutant EGFR to IC50 for cells with wildtype EGFR (Mut/WT) [1]	ratio of IC50 for cells with mutant EGFR to IC50 for cells with wildtype EGFR (Mut/WT) (EGFR G719S T790M)	ratio of IC50 for cells with mutant EGFR to IC50 for cells with wildtype EGFR (Mut/WT) (EGFR S768I/T790M)	ratio of IC50 for cells with mutant EGFR to IC50 for cells with wildtype EGFR (Mut/WT) (EGFR G724S T790M)	ratio of IC50 for cells with mutant EGFR to IC50 for cells with wildtype EGFR (Mut/WT) (EGFR Ex19del)	ratio of IC50 for cells with mutant EGFR to IC50 for cells with wildtype EGFR (Mut/WT) (EGFR L858R/T790M)	ratio of IC50 for cells with mutant EGFR to IC50 for cells with wildtype EGFR (Mut/WT) (EGFR G719A T790M)	ratio of the IC50 value for cells with a PACC EGFR mutation to the IC50 value for cells with wildtype EGFR (EGFR L718V)	ratio of the IC50 value for cells with a PACC EGFR mutation to the IC50 value for cells with wildtype EGFR (EGFR V774M)	ratio of the IC50 value for cells with a PACC EGFR mutation to the IC50 value for cells with wildtype EGFR (EGFR E709_T710del insD)	ratio of IC50 for cells with mutant EGFR to IC50 for cells with wildtype EGFR (Mut/WT) (EGFR Ex19del/T790M/G724S)	ratio of IC50 for cells with mutant EGFR to IC50 for cells with wildtype EGFR (Mut/WT) (EGFR L858R/V834L)	ratio of the IC50 value for cells with a PACC EGFR mutation to the IC50 value for cells with wildtype EGFR (EGFR G724S)	ratio of IC50 for cells with mutant EGFR to IC50 for cells with wildtype EGFR (Mut/WT) (EGFR S768dupSVD V769M)	further results	Compound
0.8866	0.1921	1.077	1.06	0.0743	0.03054	0.00433	0.1409	0.1426	0.1395	0.006035	0.01398	0.08702	0.5426	0.2862	0.497	0.02849	0.05339	1.174	1.96	ratio of the IC50 value for cells with a PACC EGFR mutation to the IC50 value for cells with wildtype EGFR (EGFR G719A/R776C): 0.2899; ratio of the IC50 value for cells with a PACC EGFR mutation to the IC50 value for cells with wildtype EGFR (EGFR L858R L718Q): 5.547; ratio of the IC50 value for cells with a PACC EGFR mutation to the IC50 value for cells with wildtype EGFR (EGFR E709A G719S): 0.3574; ratio of IC50 for cells with mutant EGFR to IC50 for cells with wildtype EGFR (Mut/WT) (EGFR L858R): 0.07863; ratio of IC50 for cells with mutant EGFR to IC50 for cells with wildtype EGFR (Mut/WT) (EGFR A767insASV): 1.61; ratio of the IC50 value for cells with a PACC EGFR mutation to the IC50 value for cells with wildtype EGFR (EGFR L858R/C797S): 5.266	C=CC(=O)N1CC[C@@H](Oc2nc(Nc3ccc(N4CCC(N5CCN(C)CC5)CC4)cc3)c(C(N)=O)nc2CC)C1 [Naquotinib]
1.068	0.03577	0.4242	1.135	0.07784	0.0584	0.001195	0.04811	0.0197	0.1867	0.0005409	0.01957	0.02653	1.157	0.1179	0.1584	0.06117	0.01123	0.869	0.3262	ratio of the IC50 value for cells with a PACC EGFR mutation to the IC50 value for cells with wildtype EGFR (EGFR G719A/R776C): 0.05772; ratio of the IC50 value for cells with a PACC EGFR mutation to the IC50 value for cells with wildtype EGFR (EGFR L858R L718Q): 0.6234; ratio of the IC50 value for cells with a PACC EGFR mutation to the IC50 value for cells with wildtype EGFR (EGFR E709A G719S): 0.09237; ratio of IC50 for cells with mutant EGFR to IC50 for cells with wildtype EGFR (Mut/WT) (EGFR L858R): 0.017; ratio of IC50 for cells with mutant EGFR to IC50 for cells with wildtype EGFR (Mut/WT) (EGFR A767insASV): 0.6382; ratio of the IC50 value for cells with a PACC EGFR mutation to the IC50 value for cells with wildtype EGFR (EGFR L858R/C797S): 3.46	Cc1cc(C(=O)Nc2nc3cccc(Cl)c3n2[C@@H]2CCCCN(C(=O)/C=C/CN(C)C)C2)ccn1 [Nazartinib]
0.268	0.04569	0.4274	1.31	0.01516	0.1289	0.0001357	0.02453	0.0215	0.01985	0.0008432	0.0007936	0.0114	0.139	0.06988	0.2299	0.005075	0.006716	0.1827	0.5379	ratio of the IC50 value for cells with a PACC EGFR mutation to the IC50 value for cells with wildtype EGFR (EGFR G719A/R776C): 0.1805; ratio of the IC50 value for cells with a PACC EGFR mutation to the IC50 value for cells with wildtype EGFR (EGFR L858R L718Q): 2.324; ratio of the IC50 value for cells with a PACC EGFR mutation to the IC50 value for cells with wildtype EGFR (EGFR E709A G719S): 0.1443; ratio of IC50 for cells with mutant EGFR to IC50 for cells with wildtype EGFR (Mut/WT) (EGFR L858R): 0.01716; ratio of IC50 for cells with mutant EGFR to IC50 for cells with wildtype EGFR (Mut/WT) (EGFR A767insASV): 0.6792; ratio of the IC50 value for cells with a PACC EGFR mutation to the IC50 value for cells with wildtype EGFR (EGFR L858R/C797S): 2.242	C=CC(=O)Nc1cccc(Oc2nc(Nc3ccc(N4CCN(C)CC4)cc3)nc3ccsc23)c1 [Olmutinib]
